Assay results reported in patent US10004225B2, “Wearable insect repelling patch” (S. C. Johnson & Son, Inc., priority 2005, dated 2018).

Assays:
mosquitoes [1] = assay: Field test in southern Florida, one-minute biting count on lower leg of human test subjects wearing patches; format: in vivo
Source text: We also conducted some field tests of the present invention in southern Florida using patches 10 dosed with metofluthrin. Human test subjects and designated untreated control entered the test site, each test subject being separated by a minimum of 25 meters (approx. 75 feet). Shortly after all test subjects and an untreated control were set up in the test site, a 15 second ‘nuisance’ pre-count was taken by counting or best estimating the number of mosquitoes landing or touching the visual areas on the test suit.
Directly after the ‘nuisance’ count, a one-minute biting pre-count of a lower leg was taken. The pre-count began by having each subject roll up one pant leg to the knee then count the number of mosquitoes landing or biting on the exposed skin over a one minute period. Once a mosquito landed, the insect was pushed away (flicked, swatted or other) from the leg.
After the precounts were made, each test subject attached insect repellent patches 10 to predetermined areas on the test suit. The location of the patches is described below.
Mosquito land or bite counts were then made as described above for the pre-counts, with counts taken every 5 minutes for the first 20 minutes. After the 20 minute count, the test subjects and controls moved locations, walking approximately 15 meters. This was followed by their immediately taking a 15-second nuisance and one-minute biting count. Additional counts were then made at 25 and 30 minutes at that new location. After the 30 minute counts, the test subjects and controls moved location again, walking approximately 15 meters. This is followed by their immediately taking a 15-second nuisance and the one-minute biting count. An additional count was then made again at 35 minutes. The test was concluded after the 35 minute count.
The patches 10 used in the test were treated with metofluthrin, the 103 cm^2 patches bearing 60 mg and the 51.6 cm^2 patches bearing about 30 mg of metofluthrin. The patch material was selected either from a substrate made of a nylon-type material or from a non-woven cloth made of rayon, polyester, polypropylene, and polyethylene fibers. No difference in performance between the two materials was detected.
When four, 103 cm^2 patch samples were used, the patches were placed on the side of each shoulder and on the outwardly facing side of each knee. For the four, 51.6 cm^2 patch samples, the patches were placed on the side of each shoulder and on the top of the shoe. The 103 cm^2 patches were too big to place on the shoe, and therefore only the 51.6 cm^2 patches were placed there. For the two, 51.6 cm^2 patch testing, one patch was placed on one shoulder and another was placed on the outwardly facing side of the opposing knee.
The Average Percent Biting Repellency was calculated using the following formula:
C2=control count at time corresponding with treatment count
T1=precount for test area
T2=test area count at designated time
The percent repellency was calculated by the following formula: […]

mosquitoes [2] = assay: Additional field tests with FIG. 4 type patches, wrist bands and ankle bands; format: in vivo; conditions: 7.5 cm×7.5 cm patches, 10 mg each, two or four patches, one or two wrist bands, five to sixty minute monitoring, heavy mosquito populations
Protocol: We then tried some additional field tests with respect to mosquitoes using FIG. 4 type patches. Patches were made be adhering a multi-layer non-woven cloth made of rayon, polyester, polypropylene, and polyethylene fibers 30 to a multi-laminate foil film 34 with strips of 3M double facing tape 32. The cloth was 7.5 cm×7.5 cm in top view, and the dosing included for each patch 10 mg of metofluthrin dissolved in 2.53 ml of acetone.
We then sealed the patches in towelette pouches for storage prior to use. When the patch was to be used, we opened the pouch by tearing it open, removed the patch, peeled off the multi-laminate foil, and attached the cloth/tape structure to the specified locations.
We tested the use of two patches, the use of four patches, the use of one or two wrist bands, and the use of one or two ankle bands. All achieved over 50% repellency throughout a five minute to sixty minute monitoring under conditions of heavy mosquito populations.

[3] = @ 25° C.; cited from earlier work

Structure (SMILES): CC=C[C@@H]1[C@@H](C(=O)OCc2c(F)c(F)c(COC)c(F)c2F)C1(C)C (racemic) [metofluthrin, 2,3,5,6-tetrafluoro-4-methoxymethylbenzyl (EZ)-(1RS,3RS)-2,2-dimethyl-3-(prop-1-enyl)-cyclopropanecarboxylate]
- Percent Biting Repellency (mosquitoes [1]; 2 patches (51.6 cm^2, about 30 mg each), 3 reps, 0 min): 0%
- Percent Biting Repellency (mosquitoes [1]; 2 patches (51.6 cm^2, about 30 mg each), 3 reps, 5 min): 42%
- Percent Biting Repellency (mosquitoes [1]; 2 patches (51.6 cm^2, about 30 mg each), 3 reps, 10 min): 60%
- Percent Biting Repellency (mosquitoes [1]; 2 patches (51.6 cm^2, about 30 mg each), 3 reps, 15 min): 90%
- Percent Biting Repellency (mosquitoes [1]; 2 patches (51.6 cm^2, about 30 mg each), 3 reps, 20 min): 81%
- Percent Biting Repellency (mosquitoes [1]; 2 patches (51.6 cm^2, about 30 mg each), 3 reps, 21 min, immediately after moving approx. 15 meters): 13%
- Percent Biting Repellency (mosquitoes [1]; 2 patches (51.6 cm^2, about 30 mg each), 3 reps, 25 min): 82%
- Percent Biting Repellency (mosquitoes [1]; 2 patches (51.6 cm^2, about 30 mg each), 3 reps, 30 min): 81%
- Percent Biting Repellency (mosquitoes [1]; 2 patches (51.6 cm^2, about 30 mg each), 3 reps, 31 min, immediately after moving approx. 15 meters): 44%
- Percent Biting Repellency (mosquitoes [1]; 2 patches (51.6 cm^2, about 30 mg each), 3 reps, 35 min): 73%
- Percent Biting Repellency (mosquitoes [1]; 3 patches (103 cm^2, 60 mg each), 2 reps, 0 min): 0%
- Percent Biting Repellency (mosquitoes [1]; 3 patches (103 cm^2, 60 mg each), 2 reps, 5 min): 75%
- Percent Biting Repellency (mosquitoes [1]; 3 patches (103 cm^2, 60 mg each), 2 reps, 10 min): 100%
- Percent Biting Repellency (mosquitoes [1]; 3 patches (103 cm^2, 60 mg each), 2 reps, 15 min): 100%
- Percent Biting Repellency (mosquitoes [1]; 3 patches (103 cm^2, 60 mg each), 2 reps, 20 min): 100%
- Percent Biting Repellency (mosquitoes [1]; 3 patches (103 cm^2, 60 mg each), 2 reps, 21 min, immediately after moving approx. 15 meters): 16%
- Percent Biting Repellency (mosquitoes [1]; 3 patches (103 cm^2, 60 mg each), 2 reps, 25 min): 84%
- Percent Biting Repellency (mosquitoes [1]; 3 patches (103 cm^2, 60 mg each), 2 reps, 30 min): 84%
- Percent Biting Repellency (mosquitoes [1]; 3 patches (103 cm^2, 60 mg each), 2 reps, 31 min, immediately after moving approx. 15 meters): 64%
- Percent Biting Repellency (mosquitoes [1]; 3 patches (103 cm^2, 60 mg each), 2 reps, 35 min): 100%
- Percent Biting Repellency (mosquitoes [1]; 4 patches (103 cm^2), 2 reps, 0 min): 0%
- Percent Biting Repellency (mosquitoes [1]; 4 patches (103 cm^2), 2 reps, 5 min): 96%
- Percent Biting Repellency (mosquitoes [1]; 4 patches (103 cm^2), 2 reps, 10 min): 100%
- Percent Biting Repellency (mosquitoes [1]; 4 patches (103 cm^2), 2 reps, 15 min): 100%
- Percent Biting Repellency (mosquitoes [1]; 4 patches (103 cm^2), 2 reps, 20 min): 88%
- Percent Biting Repellency (mosquitoes [1]; 4 patches (103 cm^2), 2 reps, 21 min, immediately after moving approx. 15 meters): 33%
- Percent Biting Repellency (mosquitoes [1]; 4 patches (103 cm^2), 2 reps, 25 min): 50%
- Percent Biting Repellency (mosquitoes [1]; 4 patches (103 cm^2), 2 reps, 30 min): 73%
- Percent Biting Repellency (mosquitoes [1]; 4 patches (103 cm^2), 2 reps, 31 min, immediately after moving approx. 15 meters): 22%
- Percent Biting Repellency (mosquitoes [1]; 4 patches (103 cm^2), 2 reps, 35 min): 96%
- Percent Biting Repellency (mosquitoes [1]; 4 patches (103 cm^2, 60 mg each), 1 rep, 0 min): 0%
- Percent Biting Repellency (mosquitoes [1]; 4 patches (103 cm^2, 60 mg each), 1 rep, 5 min): 85%
- Percent Biting Repellency (mosquitoes [1]; 4 patches (103 cm^2, 60 mg each), 1 rep, 10 min): 94%
- Percent Biting Repellency (mosquitoes [1]; 4 patches (103 cm^2, 60 mg each), 1 rep, 15 min): 100%
- Percent Biting Repellency (mosquitoes [1]; 4 patches (103 cm^2, 60 mg each), 1 rep, 20 min): 92%
- Percent Biting Repellency (mosquitoes [1]; 4 patches (103 cm^2, 60 mg each), 1 rep, 21 min, immediately after moving approx. 15 meters): 85%
- Percent Biting Repellency (mosquitoes [1]; 4 patches (103 cm^2, 60 mg each), 1 rep, 25 min): 81%
- Percent Biting Repellency (mosquitoes [1]; 4 patches (103 cm^2, 60 mg each), 1 rep, 30 min): 100%
- Percent Biting Repellency (mosquitoes [1]; 4 patches (103 cm^2, 60 mg each), 1 rep, 31 min, immediately after moving approx. 15 meters): 61%
- Percent Biting Repellency (mosquitoes [1]; 4 patches (103 cm^2, 60 mg each), 1 rep, 35 min): 94%
- personal area repellency in field test (result in words) (mosquitoes [1]; patch sizes, dosages and locations of Example 3, even after user moved to a new location): can successfully provide personal area repellency within a very brief time
- repellency (mosquitoes [2]): over 50%
- Vapor pressure [3]: 3.4 × 10^−6 mmHg @
